Settings: GIST patients, 400 or 600 mg/day oral
Procedure: METHODS: The IM plasma levels were analyzed in a subset of patients (n=73) for whom PK data on day 1 and at steady state (Day 29) was available (n=34 and 39 for 400 and 600 mg/day, respectively). The effect of patients demographics and blood chemistry parameters on IM PK was evaluated using a population PK approach. A relationship between IM plasma exposure and clinical outcome was explored by grouping patients into quartiles according to IM trough levels (Cmin). The clinical outcome parameters evaluated include overall objective responses (OOR=CR+PR+SD), time to progression (TTP), and KIT mutations.

SMILES: Cc1ccc(NC(=O)c2ccc(CN3CCN(C)CC3)cc2)cc1Nc1nccc(-c2cccnc2)n1 [imatinib, N-{5-[4-(4-methyl-piperazino-methyl)-benzoylamido]-2-methylphenyl}-4-(3-pyridyl)-2-pyrimidine-amine]
- inter-patient variability in IM exposure: large inter-patient variability

Source: patent publication US9763944B2 (Novartis AG, priority 2008, dated 2017)
